How the values were obtained:
Assay in all cases: anti-proliferation assay
Assay type in all cases: cell-based
HCT-116(OWT) = details: Homo sapiens, HCT-116, 48 h, read-out: anti-proliferation GI50
T47D(OWT) = details: Homo sapiens, 48 h, read-out: anti-proliferation GI50
A549(WT) = details: Homo sapiens, A549, 48 h, read-out: anti-proliferation GI50
H1975(WT) = details: Homo sapiens, NCI-H1975, 48 h, read-out: anti-proliferation GI50
SaoS2(WT) = details: Homo sapiens, SAOS-2, 48 h, read-out: anti-proliferation GI50
SkBr3(WT) = details: Homo sapiens, SK-BR-3, 48 h, read-out: anti-proliferation GI50
SW480(OWT) = details: Homo sapiens, SW480, 48 h, read-out: anti-proliferation GI50
SNU-1040(OMT) = details: Homo sapiens, 48 h, read-out: anti-proliferation GI50
EJ(WT) = details: 48 h, read-out: anti-proliferation GI50
SNU-449(OMT) = details: Homo sapiens, SNU-449, 48 h, read-out: anti-proliferation GI50

`CCN1CCN(Cc2ccc(C(=O)Nc3ccc(C)c(Oc4ccc5c(c4)CC(=O)N5)c3)cc2C(F)(F)F)CC1` [DDR1-IN-1] was tested, and the GI50 (HCT-116(OWT)) was 8.7 µM, the GI50 (T47D(OWT)) was over 10 µM and the GI50 (A549(WT)) was over 10 µM. For the same compound, the GI50 (H1975(WT)) was over 10 µM, the GI50 (SaoS2(WT)) was 8.14 µM and the GI50 (SkBr3(WT)) was over 10 µM. It also gave a GI50 (SW480(OWT)) of over 10 µM, a GI50 (SNU-1040(OMT)) of over 10 µM and a GI50 (EJ(WT)) of over 10 µM. For the same compound, the GI50 (SNU-449(OMT)) was over 10 µM.

Source: publication PMC3800496 (ACS Chemical Biology, 2013)
